In ChEMBL document CHEMBL3352351 (Bioorg Med Chem, 2014):

Key:
A549 = experiment: Cytotoxicity against human A549 cells after 72 hrs by MTT assay; settings: A549, 72 h
HT-29 = experiment: Cytotoxicity against human HT-29 cells after 72 hrs by MTT assay; settings: HT-29, 72 h
[1] = Cytotoxicity against human MKN45 cells after 72 hrs by MTT assay; settings: MKN-45, 72 h
[2] = Cytotoxicity against human U87MG cells after 72 hrs by MTT assay; assay type: functional, cell-based, U-87MG ATCC; settings: U-87 MG
[3] = target: Hepatocyte growth factor receptor (Homo sapiens, UniProt P08581); experiment: Inhibition of c-Met (unknown origin) using poly (Glu, Tyr) 4:1 substrate incubated for 30 mins by HTRF assay
[4] = Cytotoxicity against human H460 cells after 72 hrs by MTT assay; settings: NCI-H460, 72 h

Hepatocyte growth factor receptor, sequence (P08581 whole entry): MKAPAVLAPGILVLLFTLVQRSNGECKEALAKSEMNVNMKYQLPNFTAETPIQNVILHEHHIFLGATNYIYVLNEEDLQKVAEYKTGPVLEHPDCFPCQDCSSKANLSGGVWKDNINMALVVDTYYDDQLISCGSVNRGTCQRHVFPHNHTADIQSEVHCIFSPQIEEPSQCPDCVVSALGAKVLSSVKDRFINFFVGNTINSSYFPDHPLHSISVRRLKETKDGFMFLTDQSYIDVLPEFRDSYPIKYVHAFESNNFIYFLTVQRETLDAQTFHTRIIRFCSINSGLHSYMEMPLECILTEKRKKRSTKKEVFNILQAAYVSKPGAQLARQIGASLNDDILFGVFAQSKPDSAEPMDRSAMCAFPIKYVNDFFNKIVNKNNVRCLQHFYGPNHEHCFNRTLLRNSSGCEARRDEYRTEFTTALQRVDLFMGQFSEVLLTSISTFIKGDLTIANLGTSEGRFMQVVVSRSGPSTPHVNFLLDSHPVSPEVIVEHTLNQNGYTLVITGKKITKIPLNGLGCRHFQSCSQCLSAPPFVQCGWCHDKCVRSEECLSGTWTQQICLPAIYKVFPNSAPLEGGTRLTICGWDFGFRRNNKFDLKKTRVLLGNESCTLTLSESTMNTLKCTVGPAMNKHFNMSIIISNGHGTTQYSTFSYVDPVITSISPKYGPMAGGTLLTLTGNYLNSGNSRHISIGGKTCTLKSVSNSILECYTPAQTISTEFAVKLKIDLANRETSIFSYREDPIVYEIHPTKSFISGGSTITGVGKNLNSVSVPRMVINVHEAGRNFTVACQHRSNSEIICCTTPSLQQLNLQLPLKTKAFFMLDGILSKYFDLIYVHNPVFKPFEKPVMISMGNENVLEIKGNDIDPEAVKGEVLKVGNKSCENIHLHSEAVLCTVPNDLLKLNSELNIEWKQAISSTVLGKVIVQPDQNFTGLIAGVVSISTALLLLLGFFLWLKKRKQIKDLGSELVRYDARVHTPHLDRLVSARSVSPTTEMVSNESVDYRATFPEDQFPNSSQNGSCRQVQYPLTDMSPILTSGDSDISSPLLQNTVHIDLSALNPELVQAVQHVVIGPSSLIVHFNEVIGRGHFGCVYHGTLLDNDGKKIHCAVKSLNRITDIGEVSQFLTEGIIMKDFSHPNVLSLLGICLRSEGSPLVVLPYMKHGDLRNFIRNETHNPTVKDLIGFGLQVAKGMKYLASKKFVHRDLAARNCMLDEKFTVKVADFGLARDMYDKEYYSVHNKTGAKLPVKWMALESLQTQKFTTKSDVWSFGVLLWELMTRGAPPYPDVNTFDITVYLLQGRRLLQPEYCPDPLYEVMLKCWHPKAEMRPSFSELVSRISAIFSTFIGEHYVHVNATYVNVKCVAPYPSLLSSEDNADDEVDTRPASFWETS

Compound | IC50 (A549) [nM] | IC50 (HT-29) [nM] | IC50 [1] [nM] | IC50 [2] [nM] | IC50 [3] [nM] | IC50 [4] [nM]
COc1ccc(-n2nnc(C(=O)Nc3ccc(Oc4ccnc5cc(OCCCN6CCCCC6)c(OC)cc45)c(F)c3)c2C(F)(F)F)cc1 | 890 | 1220 | 280 | 2800 |  | 
COc1cc2c(Oc3ccc(NC(=O)c4nnn(-c5ccc(F)cc5)c4C(F)(F)F)cc3F)ccnc2cc1OCCCN1CCCCC1 | 110 | 150 | 40 | 1100 |  | 
COc1cc2c(Oc3ccc(NC(=O)c4nnn(-c5ccccc5C)c4C)cc3F)ccnc2cc1OCCCN1CCOCC1 | 320 | 470 | 220 | 1500 |  | 
COc1cc2c(Oc3ccc(NC(=O)c4nnn(-c5ccccc5C(F)(F)F)c4C)cc3F)ccnc2cc1OCCCN1CCC(C)CC1 | 180 | 260 | 60 | 1120 |  | 
COc1cc2c(Oc3ccc(NC(=O)c4nnn(-c5ccc(C)cc5)c4C(F)(F)F)cc3F)ccnc2cc1OCCCN1CCN(C)CC1 | 370 | 1170 | 140 | 2170 |  | 
COc1cc2c(Oc3ccc(NC(=O)c4nnn(-c5ccccc5C(F)(F)F)c4C(F)(F)F)cc3F)ccnc2cc1OCCCN1CCN(C)CC1 | 180 | 230 | 100 | 1440 |  | 
COc1ccc(-n2nnc(C(=O)Nc3ccc(Oc4ccnc5cc(OCCCN6CCOCC6)c(OC)cc45)c(F)c3)c2C(F)(F)F)cc1 | 640 | 1080 | 680 | 2400 |  | 
COc1cc2c(Oc3ccc(NC(=O)c4nnn(-c5ccccc5C(F)(F)F)c4C)cc3F)ccnc2cc1OCCCN1CCN(C)CC1 | 200 | 230 | 100 | 1420 |  | 
COc1cc2c(Oc3ccc(NC(=O)c4nnn(-c5ccc(C)cc5)c4C(F)(F)F)cc3F)ccnc2cc1OCCCN1CCC(C)CC1 | 400 | 1200 | 140 | 2800 |  | 
COc1cc2c(Oc3ccc(NC(=O)c4nnn(-c5ccc(C)cc5)c4C(F)(F)F)cc3F)ccnc2cc1OCCCN1CCOCC1 | 350 | 570 | 620 | 2700 |  | 
COc1cc2c(Oc3ccc(NC(=O)c4nnn(-c5ccc(F)c(F)c5)c4C(F)(F)F)cc3F)ccnc2cc1OCCCN1CCC(C)CC1 | 140 | 190 | 50 | 1150 |  | 
COc1cc2c(Oc3ccc(NC(=O)c4nnn(-c5ccccc5C)c4C)cc3F)ccnc2cc1OCCCN1CCC(C)CC1 | 360 | 520 | 120 | 2160 |  | 
COc1cc2c(Oc3ccc(NC(=O)c4nnn(-c5ccccc5C(F)(F)F)c4C(F)(F)F)cc3F)ccnc2cc1OCCCN1CCC(C)CC1 | 220 | 200 | 100 | 1240 |  | 
COc1cc2c(Oc3ccc(NC(=O)c4nnn(-c5ccc(C)cc5)c4C(F)(F)F)cc3F)ccnc2cc1OCCCN1CCCC1 | 370 | 550 | 210 |  |  | 
COc1cc2c(Oc3ccc(NC(=O)c4nnn(-c5ccc(C)cc5)c4C(F)(F)F)cc3F)ccnc2cc1OCCCN1CCCCC1 | 490 | 1250 | 230 | 2500 |  | 
COc1cc2c(Oc3ccc(NC(=O)c4nnn(-c5ccccc5)c4C)cc3F)ccnc2cc1OCCCN1CCOCC1 | 140 | 180 | 60 | 1060 |  | 
COc1ccc(-n2nnc(C(=O)Nc3ccc(Oc4ccnc5cc(OCCCN6CCCC6)c(OC)cc45)c(F)c3)c2C(F)(F)F)cc1 | 560 | 1020 | 590 |  |  | 
COc1cc2c(Oc3ccc(NC(=O)c4nnn(-c5ccc(F)c(F)c5)c4C(F)(F)F)cc3F)ccnc2cc1OCCCN1CCN(C)CC1 | 130 | 150 | 90 | 1390 |  | 
COc1cc2c(Oc3ccc(NC(=O)c4nnn(-c5ccccc5C(F)(F)F)c4C)cc3F)ccnc2cc1OCCCN1CCCCC1 | 170 | 200 | 90 | 1150 |  | 

Compound | IC50 (A549) [nM] | IC50 (HT-29) [nM] | IC50 [1] [nM] | IC50 [2] [nM] | IC50 [3] [nM] | IC50 [4] [nM]
COc1cc2c(Oc3ccc(NC(=O)c4nnn(-c5ccccc5C(F)(F)F)c4C(F)(F)F)cc3F)ccnc2cc1OCCCN1CCOCC1 | 210 | 230 | 90 | 1160 |  | 
COc1cc2c(Oc3ccc(NC(=O)c4nnn(-c5ccccc5C(F)(F)F)c4C(F)(F)F)cc3F)ccnc2cc1OCCCN1CCCC1 | 200 | 210 | 60 | 1180 | 3.68 | 270
COc1ccc(-n2nnc(C(=O)Nc3ccc(Oc4ccnc5cc(OCCCN6CCN(C)CC6)c(OC)cc45)c(F)c3)c2C(F)(F)F)cc1 | 1220 | 2200 | 330 |  |  | 
COc1cc2c(Oc3ccc(NC(=O)c4nnn(-c5ccccc5C(F)(F)F)c4C)cc3F)ccnc2cc1OCCCN1CCCC1 | 160 | 200 | 70 | 1060 |  | 
COc1cc2c(Oc3ccc(NC(=O)c4nnn(-c5ccccc5)c4C)cc3F)ccnc2cc1OCCCN1CCC(C)CC1 | 110 | 140 | 90 | 1240 |  | 
COc1cc2c(Oc3ccc(NC(=O)c4nnn(-c5ccccc5C)c4C)cc3F)ccnc2cc1OCCCN1CCCC1 | 380 | 450 | 270 | 1600 |  | 
COc1cc2c(Oc3ccc(NC(=O)c4nnn(-c5ccc(F)cc5)c4C(F)(F)F)cc3F)ccnc2cc1OCCCN1CCC(C)CC1 | 120 | 160 | 70 | 800 |  | 
COc1cc2c(Oc3ccc(NC(=O)c4nnn(-c5ccccc5C)c4C)cc3F)ccnc2cc1OCCCN1CCCCC1 | 330 | 450 | 160 | 2370 |  | 
COc1cc2c(Oc3ccc(NC(=O)c4nnn(-c5ccccc5Cl)c4C(F)(F)F)cc3F)ccnc2cc1OCCCN1CCCCC1 | 190 | 200 | 110 | 1200 |  | 
COc1cc2c(Oc3ccc(NC(=O)c4nnn(-c5ccc(F)c(F)c5)c4C(F)(F)F)cc3F)ccnc2cc1OCCCN1CCCC1 | 170 | 180 | 70 | 1070 |  | 
COc1cc2c(Oc3ccc(NC(=O)c4nnn(-c5ccccc5)c4C)cc3F)ccnc2cc1OCCCN1CCCC1 | 90 | 130 | 40 | 1000 |  | 
COc1cc2c(Oc3ccc(NC(=O)c4nnn(-c5ccc(F)c(F)c5)c4C(F)(F)F)cc3F)ccnc2cc1OCCCN1CCCCC1 | 160 | 180 | 90 | 1210 |  | 
COc1cc2c(Oc3ccc(NC(=O)c4nnn(-c5ccccc5C(F)(F)F)c4C)cc3F)ccnc2cc1OCCCN1CCOCC1 | 180 | 200 | 100 | 1010 |  | 
COc1cc2c(Oc3ccc(NC(=O)c4nnn(-c5cccc(Br)c5)c4C(F)(F)F)cc3F)ccnc2cc1OCCCN1CCC(C)CC1 | 350 | 380 | 120 |  |  | 
COc1cc2c(Oc3ccc(NC(=O)c4nnn(-c5ccccc5)c4C)cc3F)ccnc2cc1OCCCN1CCCCC1 | 100 | 120 | 80 | 1130 |  | 
COc1cc2c(Oc3ccc(NC(=O)c4nnn(-c5ccccc5Cl)c4C(F)(F)F)cc3F)ccnc2cc1OCCCN1CCN(C)CC1 | 240 | 270 | 166 | 1220 |  | 
COc1cc2c(Oc3ccc(NC(=O)c4nnn(-c5ccc(F)c(F)c5)c4C(F)(F)F)cc3F)ccnc2cc1OCCCN1CCOCC1 | 150 | 230 | 50 | 1130 |  | 
COc1cc2c(Oc3ccc(NC(=O)c4nnn(-c5ccc(F)cc5)c4C(F)(F)F)cc3F)ccnc2cc1OCCCN1CCOCC1 | 130 | 140 | 60 | 1080 |  | 
